Measured values as given in PMC5607274, “An iterative compound screening contest method for identifying target protein inhibitors using the tyrosine-protein kinase Yes” (Scientific Reports, 2017).

target: T1, human recombinant Yes [a.a. 2–543 (end)] (Homo sapiens, UniProt P07947); experiment: ADP-Glo kinase assay, inhibition rates of Yes phosphorylation activity (first and second screening); assay type: biochemical; conditions: first screening; mean of n = 4 wells; 10 μmol L−1 compound
T1 construct: human recombinant Yes [a.a; 2–543 (end)]; purchased BPS Bioscience 40488
T1 sequence (P07947 2-543): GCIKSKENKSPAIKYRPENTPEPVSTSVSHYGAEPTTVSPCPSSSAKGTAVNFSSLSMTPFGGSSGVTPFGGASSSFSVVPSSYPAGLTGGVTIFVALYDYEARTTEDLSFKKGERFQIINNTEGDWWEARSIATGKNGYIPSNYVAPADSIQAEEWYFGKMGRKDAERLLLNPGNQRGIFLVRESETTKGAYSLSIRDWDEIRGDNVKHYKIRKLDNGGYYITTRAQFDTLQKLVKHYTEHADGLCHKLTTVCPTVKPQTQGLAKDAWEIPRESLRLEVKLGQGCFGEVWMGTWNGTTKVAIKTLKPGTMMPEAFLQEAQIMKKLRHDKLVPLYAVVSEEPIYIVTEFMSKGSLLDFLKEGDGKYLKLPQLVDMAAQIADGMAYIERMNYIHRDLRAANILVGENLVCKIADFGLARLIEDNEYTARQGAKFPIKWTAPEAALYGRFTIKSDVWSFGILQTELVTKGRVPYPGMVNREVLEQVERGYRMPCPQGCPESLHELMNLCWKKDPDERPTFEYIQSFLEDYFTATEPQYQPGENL
How it was run: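 ADP-Glo luminescence measured inhibition of human recombinant Yes (a.a. 2–543) phosphorylation activity. In the first screen, each compound ran in 4 wells and inhibition rates were averaged. The second screen retested hits as compounds dissolved from fresh powder.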

First: CC(=O)Nc1ccc(/C=N/Nc2ncnc3cc(-c4ccc(F)cc4)sc23)cc1 [Compound Z50080181]
Second: Oc1cncc(/C=C/c2nc(-c3ccc(Oc4ccc(F)cc4)nc3)no2)c1 [Compound Z1642148338]
The “First screening IR (inhibition rate)” value of the first is higher: 51% for the first, -13% for the second.

First: CC1CC(CNC(=O)c2cccc(O)c2)CN1Cc1ccccc1 (centres unmarked) [Compound Z1633590863]
Second: CC1CC(CNC(=O)c2ccc(O)cc2F)CN1Cc1ccccc1 (centres unmarked) [Compound Z1735017324]
The “First screening IR (inhibition rate)” value of the first is lower: 1% for the first, 2% for the second.

Compared with `Cn1c(=O)[nH]c(=O)c2cc(C(=O)OCCNc3ncccc3C#N)cnc21` [Compound Z1633934253], `Cn1ccnc1C(O)(CCNC(=O)c1cccc(-c2cnc3[nH]c(=O)n(C)c3c2)c1)C(F)(F)F` (centres unmarked) [Compound Z1723428243] is higher in “First screening IR (inhibition rate)” value: -1% for the first, 17% for the second.

First: COc1cc(/C=C/C(=O)N2CCCC2c2c(C)nn(C)c2C)cc(Br)c1O (centres unmarked) [Compound Z1634598040]
Second: COc1ccc(Br)c(CN(C)C(C)C2CCN(C)CC2)c1 (centres unmarked) [Compound Z1682981267]
The “First screening IR (inhibition rate)” value of the first is higher: 41% for the first, 2% for the second.

Going from `Cc1ccc(-c2noc(/C=C/c3cncc(O)c3)n2)cc1F` [Compound Z1642148240] to `COc1ccc(-c2noc(/C=C/c3cncc(O)c3)n2)cc1` [Compound Z1642148255], the “First screening IR (inhibition rate)” value rises from -4% to 3%.

First: Cc1ccc(NC2CCN(Cc3ccncc3)CC2)c(CN(C)C)c1 [Compound Z1642185485]
Second: CNC(=O)c1cccc(NCc2cc(C)ccc2O)n1 [Compound Z1743524859]
The “First screening IR (inhibition rate)” value of the first is lower: 2% for the first, 37% for the second.

Compared with `COC(=O)Nc1ccc(NC(=O)C2CC2c2ccc(C(C)C)cc2)cc1F` (centres unmarked) [Compound Z1646916001], `CCNC(=O)c1ccc(NC(C)C(O)c2ccc(F)cc2)nc1` (centres unmarked) [Compound Z1798329942] is higher in “First screening IR (inhibition rate)” value: 7% for the first, 35% for the second.

Going from `CC(Nc1ccc(Oc2cccc3cccnc23)cc1)C(N)=O` (centres unmarked) [Compound Z1651676792] to `Cc1nccn1Cc1ccc(NC(=O)c2ncccc2O)cc1` [Compound Z1746485864], the “First screening IR (inhibition rate)” value rises from 6% to 55%.

Compared with `O=C(COc1ccccc1F)NCc1ccc2[nH]c(=O)[nH]c2c1` [Compound Z1654002148], `O=C(NCCCc1c[nH]c2ccccc12)Nc1ccncc1F` [Compound Z1677751393] is higher in “First screening IR (inhibition rate)” value: 3% for the first, 19% for the second.

Compared with `CC(O)C1CCN(C(=O)NCC2CC(C)N(Cc3ccccc3)C2)C1` (centres unmarked) [Compound Z1658298345], `CC1CCN(c2nc(N)nc3nc[nH]c23)CCN1Cc1ccccc1` (centres unmarked) [Compound Z1675288656] is higher in “First screening IR (inhibition rate)” value: -9% for the first, 48% for the second.

Going from `CC(C)(C)n1ncc2c(NCCc3nnc4n3CCCC4)ncnc21` [Compound Z1661117530] to `CC(C)Oc1cc(CN(c2ncnc3c2cnn3C)C2CC2)ccn1` [Compound Z1739489055], the “First screening IR (inhibition rate)” value falls from 7% to 3%.

First: OC1CCC(Nc2ncnc3cccc(I)c23)CC1 (centres unmarked) [Compound Z1661333590]
Second: CNc1nc(NC2CCOC2c2ccc(F)c(F)c2)ncc1Br (centres unmarked) [Compound Z1765170433]
The “First screening IR (inhibition rate)” value of the first is higher: 10% for the first, 3% for the second.

Compared with `COc1cccc(-c2cc(-c3ccc(C)cc3)c3ccccc3n2)c1` [Compound Z1664164245], `COc1cccc(-c2cc(-c3ccc(Cl)cc3)c3ccccc3n2)c1` [Compound Z1844441844] is higher in “First screening IR (inhibition rate)” value: -18% for the first, 48% for the second.

Going from `CCCCn1nc(C)c(C(=O)N2CCC(C)(CN3CCN(C)CC3)CC2)c1Cl` [Compound Z1667221615] to `CC(CNC(=O)c1ncncc1Br)CN1CCN(C)CC1` (centres unmarked) [Compound Z1936607769], the “First screening IR (inhibition rate)” value falls from 29% to -11%.

First: CC(NC(=O)c1ccc2[nH]cnc2n1)c1ccc(-c2cncnc2)cc1 (centres unmarked) [Compound Z1669230171]
Second: NC(=O)C(Nc1cnn(Cc2ccccc2)c1)c1ccc(F)cc1 (centres unmarked) [Compound Z1686719326]
The “First screening IR (inhibition rate)” value of the first is higher: 8% for the first, 0% for the second.

First: Cc1cc(F)cc2[nH]c(C(=O)NC3CN(C(=O)OC(C)(C)C)CC3C#N)cc12 (centres unmarked) [Compound Z1671371372]
Second: CC1(NC(=O)OC(C)(C)C)CCN(C(=O)c2cc3c(cc2O)CCCC3)CC1 [Compound Z1769013356]
The “First screening IR (inhibition rate)” value of the first is higher: 6% for the first, -20% for the second.

Compared with `CC(=O)[C@@H]1C[C@H](CC(=O)NCCc2ccn(-c3ccc(F)cc3)n2)C1(C)C` [Compound Z1675157483], `CC(C)c1ccc(-n2cc(O)c(C(=O)NCC(C)N3CCCCC3=O)n2)cc1` (centres unmarked) [Compound Z1820642882] is lower in “First screening IR (inhibition rate)” value: 5% for the first, -3% for the second.

Going from `O=C(NCCN1CCc2ccccc2C1)Nc1ccncc1F` [Compound Z1677754180] to `O=C(NCc1cnn(Cc2ccccc2)c1)Nc1ccncc1F` [Compound Z1677761301], the “First screening IR (inhibition rate)” value rises from 0% to 4%.

Compared with `Cc1cnc(C)c(NCc2cccc(Cn3ccnc3C)c2)n1` [Compound Z1687428428], `Cc1nccn1-c1cncc(NCc2cc(-c3ccccc3)on2)n1` [Compound Z1798299891] is higher in “First screening IR (inhibition rate)” value: 9% for the first, 19% for the second.

Going from `Cc1cnc(CCSc2ncc(-c3ccc(F)cc3)o2)cn1` [Compound Z1688195829] to `Cn1cncc1CC(=O)Nc1ccc2nc(-c3cc(F)ccc3F)[nH]c2c1` [Compound Z1737110153], the “First screening IR (inhibition rate)” value falls from 15% to 6%.

Compared with `CN(C)c1ccc(NC(=O)N(C)C2CS(=O)(=O)c3ccc(Cl)cc32)cn1` (centres unmarked) [Compound Z1688689058], `CN(c1cc(C#N)ccn1)S(=O)(=O)c1ccccc1S(C)(=O)=O` [Compound Z1833478806] is higher in “First screening IR (inhibition rate)” value: -9% for the first, 7% for the second.

Going from `Nc1nc(N2CC=C(c3ccccc3F)CC2)c2[nH]cnc2n1` [Compound Z1699229618] to `O=c1[nH]c2cc(Cl)ccc2c(-c2ccccc2)c1CN1CCCCC1` [Compound Z1980444406], the “First screening IR (inhibition rate)” value falls from 60% to 1%.

Compared with `CC(C)COCCCNS(=O)(=O)CCCS(=O)(=O)N(C)C` [Compound Z1702883776], `CN(C)S(=O)(=O)CCCS(=O)(=O)N(C)C1CCC1` [Compound Z1720728610] is higher in “First screening IR (inhibition rate)” value: -12% for the first, -6% for the second.

First: c1ccc(-c2nc(NCc3ccc(-n4cncn4)cc3)no2)cc1 [Compound Z1722673239]
Second: Cc1ccc(-c2cc(-c3cccc(Br)c3)nc3ccccc23)cc1 [Compound Z1847669462]
The “First screening IR (inhibition rate)” value of the first is lower: -10% for the first, 0% for the second.

First: O=C(O)c1cccc(/C=C/c2ccnnc2)c1 [Compound Z1728621359]
Second: Oc1cncc(/C=C/c2nc(-c3ccncc3)no2)c1 [Compound Z1739342675]
The “First screening IR (inhibition rate)” value of the first is lower: -9% for the first, 8% for the second.

Going from `C/C(=C/c1ccc2ncccc2c1)c1cnccn1` [Compound Z1728623559] to `Cc1ccc(-c2cc(-c3cccc(C)c3)nc3ccccc23)cc1` [Compound Z1844441892], the “First screening IR (inhibition rate)” value rises from 2% to 9%.

Going from `CSc1ccc(C(C)N2CCCC(C(=O)N3CCOCC3)C2)cc1F` (centres unmarked) [Compound Z1742902065] to `CC(C)c1ccc(Sc2ccc(N3CCC(C(=O)O)CC3)nn2)cc1` [Compound Z1863492097], the “First screening IR (inhibition rate)” value falls from 26% to 1%.

First: Cc1cc(N2CCN(C(=O)c3cc(Br)cn3C(C)C)CC2)n[nH]1 [Compound Z1784719533]
Second: CNS(=O)(=O)c1ccc2c(c1)nc(-c1cc(C#N)n(C)c1)n2C [Compound Z1837787694]
The “First screening IR (inhibition rate)” value of the first is lower: -5% for the first, -2% for the second.

Compared with `C#CC(COC)NS(=O)(=O)CCCS(C)(=O)=O` (centres unmarked) [Compound Z1787994415], `Cc1occc1S(=O)(=O)CCCS(=O)(=O)C(C)C` [Compound Z1822689954] is lower in “First screening IR (inhibition rate)” value: 4% for the first, -9% for the second.

Compared with `O=[N+]([O-])c1ccc(N2CCC(C(O)c3ncc[nH]3)CC2)nc1-c1ccccc1` (centres unmarked) [Compound Z1823608663], `CN1CCC(N(c2ccccc2)S(=O)(=O)c2cc(Cl)cc3c2OCC3)CC1` [Compound Z1833465604] is higher in “First screening IR (inhibition rate)” value: -51% for the first, 9% for the second.

Compared with `C#CCN(C)S(=O)(=O)c1cc(S(C)(=O)=O)sc1Cl` [Compound Z1863649257], `C#CC(C)(C)N(C)S(=O)(=O)c1ccc(S(C)(=O)=O)cc1` [Compound Z1911236831] is higher in “First screening IR (inhibition rate)” value: -18% for the first, -10% for the second.

same assay, conditions: second screening, dissolved from fresh powder; n = 4; 10 μmol L−1 compound

In the case of `CC(=O)Nc1ccc(/C=N/Nc2ncnc3cc(-c4ccc(F)cc4)sc23)cc1` [Compound Z50080181], the “Second screening IR (inhibition rate)” value is reported as 47%.

target: T1, human recombinant Yes [a.a. 2–543 (end)]; experiment: ADP-Glo kinase assay, IC50 determination (dose-response curves) for Yes; assay type: biochemical; conditions: IC50 determination
Protocol: All inhibitory assays of the phosphorylation activity of Yes were performed in accordance with the Promega Technical Manual for the ADP-Glo™ Kinase Assay (Fitchburg, WI, USA. Catalog number: V9102). The human recombinant Yes [a.a. 2–543 (end)] was purchased from BPS Bioscience (catalog number: 40488). The details of the assay protocol and reagent information are given elsewhere.
The screening was conducted in three steps consisting of the first screening, the second screening, and the IC50 determination, as can be illustrated in Fig. 1b. First, we determined the inhibition rates of the 1,991 compounds. Each compound was placed in 4 wells of a 384-well plate. In total, 80 compounds were assayed on one plate and the other wells were used for positive and negative controls. The compounds were randomly placed on plates so that compounds proposed by one group were not placed on a plate together. A mean of four inhibition rates for each compound was compared to criteria for the first screening. […] Second, the inhibition rates of the screened compounds were determined on one plate using the same procedure of the first screening, where compounds were dissolved from fresh powder. […] Screened compounds were then evaluated for their IC50 values. […]
determine their IC50 values. Each dose-response curve was initially built using 8-point, 2-fold serial dilutions starting at 100 μmol L−1, with each concentration point in 4 […]
Assay was carried out under the same conditions as the primary screening, in summary, the final reagent concentrations were 5.5-nmol L−1 Ye s , 0.013-mmol L−1 ATP, and 0.2-mg mL−1 substrate (poly Glu-Tyr peptides, Glu:Tyr=4:1).
The curves were analyzed by GraphPad Prism (sigmoidal fit with variable slope). IC50 […]
standard deviations of the measurements.

With `CC(=O)Nc1ccc(/C=N/Nc2ncnc3cc(-c4ccc(F)cc4)sc23)cc1` [Compound Z50080181] the “dose-response relationship (DRR)” value was “did not reveal a DRR”.

same assay, conditions: dose-response test, no DRR

In the case of `CC(=O)Nc1ccc(/C=N/Nc2ncnc3cc(-c4ccc(F)cc4)sc23)cc1` [Compound Z50080181], the “"inhibition activity" in the whole range of concentrations” value is reported as “around 50%”.
